Data: US20250313574A1, “SIALIC ACID DERIVATIVES AND METHODS OF USING SAME” (EISAI R&D MANAGEMENT CO., LTD., priority 2022, published 2025)

Tests used:
[1] = molecular target: Recombinant human CD33 protein (Homo sapiens (Human), UniProt P20138); assay: CD33 competitive binding assay for HTS drug screen (fluorescent multivalent sialic acid probe)
Procedure, shortened: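 Recombinant human CD33, coated overnight at 4° C from 10 μg/ml in pH 5.5 acetate, was preincubated briefly with compound. It was then exposed to a multivalent neutravidin/FITC/sialic acid analog A-375 probe (final 5 μM neutravidin, 15 μM A-375, 5 μM FITC) for 30 min at room temperature. After washing, bound FITC fluorescence was read.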

[2] = molecular target: Recombinant Human Siglec-3/CD33 protein (His-CD33) (Homo sapiens (Human), UniProt P20138); assay: Differential scanning fluorimetry (DSF) thermal shift assay; format: binding
Procedure: In the DSF assay, as the temperature increases, the protein gets gradually unfolded, exposing hydrophobic regions in which a fluorescent dye binds causing the fluorescence signal to increase. The midpoint of the unfolding transitions is called the thermal melt (Tm) or denaturation temperature and the Tm was defined as the peak apex in the derivative curve. Here, the Tm temperature of CD33 in the presence and absence of A-001 at a concentration of 50 μM was examined.
Recombinant Human Siglec-3/CD33 protein was purchased from Acros (catalog no. CD3-H5226) and reagents used in this study are shown in the Table 1 below.
Lyophilized CD33 protein was received in 1 mg aliquots from Acros. The protein was diluted with 2.5 mL of sterile water to a concentration of 400 μg/mL (14.5 μM), aliquoted into 138 μL aliquots and stored as at −20° C. On the day of analysis, the protein was thawed and […] solution was diluted to […] using buffer containing 133 mM NaCl, 133 mM phosphate buffered solution and 13.9× Sypro Orange dye in water in a quantity to cover the amount of samples tested on the day of the analysis.
200 μM stock solutions of A-001 containing 0.2% DMSO in water was supplied by compound management in a 384-well plate format.
Sample matrix were prepared by adding 7.5 μL of the protein buffer stock solution followed by addition of 2.5 μL of the 200 μM compound solutions in 384-well PCR plates to give a final volume of 10 μL per well consisting of 0.5 μM CD33 protein, 100 mM phosphate buffered solution pH 7.4, 100 mM NaCl, 10× SYPRO orange dye and 50 μM compound concentration (final DMSO concentration ˜0.2%). Using the Applied Biosystems® Protein Thermal Shift software (algorithm version 1.3.), the denaturation temperature or thermal melt (Tm) of the unbound and ligand bound CD33 protein was automatically assigned and the difference in thermal melt (ΔTm D) was calculated using the derivative curve by the Protein Thermal Shift software.
Recombinant human CD33 protein (0.5 μM) was incubated under buffered conditions in the presence of SYPRO orange dye, a temperature gradient was applied and a thermogram was produced by monitoring the fluorescence. The Tm was defined as the peak apex in the derivative curve in the study. […] Addition of […] of A-001 (Blue lines) to the CD33 protein induced significant Tm increases (ΔTm D) of 12.2±0.7° C.

[3] = difference in thermal melt of CD33 protein (0.5 μM) with 50 μM compound
[4] = thermal melt shift of 0.5 μM CD33 protein with 50 μM compound

Chain of Recombinant Human Siglec-3/CD33 protein (His-CD33) (P20138 18-259): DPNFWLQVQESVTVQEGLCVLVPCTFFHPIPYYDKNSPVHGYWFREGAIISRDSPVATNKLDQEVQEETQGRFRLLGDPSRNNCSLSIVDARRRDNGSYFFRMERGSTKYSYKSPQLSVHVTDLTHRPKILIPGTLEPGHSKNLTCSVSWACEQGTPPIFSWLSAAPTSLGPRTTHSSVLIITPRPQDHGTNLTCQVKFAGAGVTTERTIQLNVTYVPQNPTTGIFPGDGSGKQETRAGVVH
Chain of Recombinant human CD33 protein (P20138 18-259): as above

| SMILES | EC50 [1] | DSF (dTmD) [2, 3] | DSF (dTmD) [2, 4] |
| --- | --- | --- | --- |
| Cc1cc(C(=O)NC[C@@H](O)[C@@H](O)[C@@H]2O[C@@](CC3OC(C)(C)O[C@H]3c3cccc(CNC(=O)OC(C)(C)C)c3)(C(=O)O)C[C@H](O)[C@H]2NC(=O)Cn2cc(C3CCCCC3)nn2)cc(C)c1O (stereo partly shown) [A-301] | 5260 nM | 3.5 °C | – |
| CC(=O)N[C@H]1[C@H]([C@H](O)[C@H](O)CNC(=O)c2cc(C)c(O)c(C)c2)O[C@@](CCN2CCOC[C@@]23CCN(C(=O)OC(C)(C)C)C3)(C(=O)NS(=O)(=O)C(F)(F)F)C[C@@H]1O [A-367] | > 100000 nM | 0.1 °C | – |
| CC(=O)N[C@H]1[C@H]([C@H](O)[C@H](O)CNC(=O)c2cc(C)c(O)c(C)c2)O[C@@](CCN2CCOC[C@@]23CCN(C(=O)NC2(c4ccc(F)cc4)CCCC2)C3)(C(=O)O)C[C@@H]1O [A-057] | 265 nM | – | 9.7 |
| CC(=O)N[C@H]1[C@H]([C@H](O)[C@H](O)CNC(=O)c2cc(Cl)c(F)c(Cl)c2)O[C@@](CCN2CCOC[C@@]23CCN(C(=O)OC(C)(C)C)C3)(C(=O)O)C[C@@H]1O [A-159] | 238 nM | – | 11.4 |
| CC(=O)N[C@H]1[C@H]([C@H](O)[C@H](O)CNC(=O)c2ccc3[nH]nc(C)c3c2)O[C@@](CCN2CCOC[C@@]23CCN(C(=O)OC(C)(C)C)C3)(C(=O)O)C[C@@H]1O [A-125] | 23 nM | – | 13.3 |
| CC(=O)N[C@H]1[C@H]([C@H](O)[C@H](O)CNC(=O)c2cc(C)c(O)c(C)c2)O[C@@](CCN2C[C@@H](C)OC[C@@]23CCN(C(=O)OC(C)(C)C)C3)(C(=O)O)C[C@@H]1O [A-004] | 98 nM | – | 9.1 |
| CC(=O)N[C@H]1[C@H]([C@H](O)[C@H](O)CNC(=O)c2cc(C)c(O)c(C)c2)O[C@@](CCN2CCOC[C@@]23CCN(C(=O)C2(C)CCC2)C3)(C(=O)O)C[C@@H]1O [A-103] | 1020 nM | – | 6.6 |
| Cc1cc(C(=O)NC[C@@H](O)[C@@H](O)[C@@H]2O[C@@](C/C=C/c3cccc(CNC(=O)c4ccc5[nH]ccc5c4)c3)(C(=O)O)C[C@H](O)[C@H]2NC(=O)Cn2cc(C3CCCCC3)nn2)cc(C)c1O [A-278] | 1740 nM | 8.8 °C | – |
| CC(=O)N[C@H]1[C@H]([C@H](O)[C@H](O)CNC(=O)c2ccc(C)c(C(F)(F)F)c2)O[C@@](CCN2CCOC[C@@]23CCN(C(=O)OC(C)(C)C)C3)(C(=O)O)C[C@@H]1O [A-145] | 610 nM | – | 9.6 |
| CC(=O)N[C@H]1[C@H]([C@H](O)[C@H](O)CNC(=O)c2cc(C)cc(C)c2)O[C@@](CCN2CCOC[C@@]23CCN(C(=O)OC(C)(C)C)C3)(C(=O)O)C[C@@H]1O [A-190] | 119 nM | – | 10.1 |
| CC(=O)N[C@H]1[C@H]2O[C@](C(=O)O)(CCCc3cccc(c3)[C@@H](NC(=O)C3CCCOC3)CCCCc3cc(cc(Cl)c3O)C(=O)NC[C@@H](O)[C@H]2O)C[C@@H]1O (stereo partly shown) [A-351] | 15000 nM | 3.1 °C | – |
| CC(=O)N[C@H]1[C@H]([C@H](O)[C@H](O)CNC(=O)c2cc(C)c(O)c(C)c2)O[C@@](CCN2CCOC[C@@]23CCN(C(=O)C2CC2)C3)(C(=O)O)C[C@@H]1O [A-096] | 454 nM | – | 7.6 |
| CC(=O)N[C@H]1[C@H]([C@H](O)[C@H](O)CNC(=O)c2cc(C)c(O)c(C)c2)O[C@@](CCN2CCOC[C@@]23CCN(C(=O)N[C@@H](C)c2ccccc2)C3)(C(=O)O)C[C@@H]1O [A-043] | 13 nM | – | 13.2 |
| COC(=O)[C@@]1(CCN2CCOC[C@@]23CCN(C(=O)OC(C)(C)C)C3)C[C@H](O)[C@@H](NC(C)=O)[C@H]([C@H](O)[C@H](O)CNC(=O)c2cc(C)c(O)c(C)c2)O1 [A-002] | – | – | −0.3 |
| CC(=O)NC1[C@H]([C@H](O)[C@H](O)CNC(=O)c2cc(C)c(O)c(C)c2)O[C@@](CC(=O)N2CCOC[C@]23CCN(C(=O)OC(C)(C)C)C3)(C(=O)O)C[C@@H]1O (stereo partly shown) [A-222] | – | 9.3 °C | – |
